Results published in patent publication US20120101106A1, “Tetrahydronapthyridine Orexin Receptor Antagonists” (priority 2009, published 2012).

Biological target: T1, OX2R (Homo sapiens, UniProt O43614)
T1 construct: expressed in transfected cells; host or cells: CHO cells (membranes)
T1 sequence (O43614 1-444): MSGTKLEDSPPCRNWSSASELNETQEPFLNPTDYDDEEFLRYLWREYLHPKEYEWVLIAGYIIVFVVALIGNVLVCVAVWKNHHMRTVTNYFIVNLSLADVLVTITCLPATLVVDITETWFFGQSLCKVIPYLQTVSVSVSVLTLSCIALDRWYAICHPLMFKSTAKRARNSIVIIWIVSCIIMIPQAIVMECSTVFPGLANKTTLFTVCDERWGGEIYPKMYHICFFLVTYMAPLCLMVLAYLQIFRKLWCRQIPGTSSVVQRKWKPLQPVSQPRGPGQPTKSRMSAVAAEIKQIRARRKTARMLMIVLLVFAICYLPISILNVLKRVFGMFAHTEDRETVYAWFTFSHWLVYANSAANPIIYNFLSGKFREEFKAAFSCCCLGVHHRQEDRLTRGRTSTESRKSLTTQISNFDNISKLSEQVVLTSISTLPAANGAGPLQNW
Assay: radioligand binding assay, membranes from CHO cells expressing the OX2 receptor
Details: CHO cell membranes
Method: The utility of the compounds in accordance with the present invention as orexin receptor OX1R and/or OX2R antagonists may be readily determined without undue experimentation by methodology well known in the art, including the “FLIPR Ca^2+ Flux Assay” (Okumura et al., Biochem. Biophys. Res. Comm. 280:976-981, 2001). In a typical experiment the OX1 and OX2 receptor antagonistic activity of the compounds of the present invention was determined in accordance with the following experimental method. For intracellular calcium measurements, Chinese hamster ovary (CHO) cells expressing the rat orexin-1 receptor or the human orexin-2 receptor, are grown in Iscove's modified DMEM containing 2 mM L-glutamine, […], 1% hypoxanthine-thymidine supplement, 100 U/ml penicillin, 100 ug/ml streptomycin and 10% heat-inactivated fetal calf serum (FCS). The cells are seeded at 20,000 cells/well into Becton-Dickinson black 384-well clear bottom sterile plates coated with poly-D-lysine. All reagents were from GIBCO-Invitrogen Corp. The seeded plates are incubated overnight at 37° C. and 5% CO2. Ala-6,12 human orexin-A as the agonist is prepared as a 1 mM stock solution in 1% bovine serum albumin (BSA) and diluted in assay buffer (HBSS containing 20 mM HEPES, 0.1% BSA and 2.5 mM probenecid, pH7.4) for use in the assay at a final concentration of 70 pM. Test compounds are prepared as 10 mM stock solution in DMSO, then diluted in 384-well plates, first in DMSO, then assay buffer. On the day of the assay, cells are washed 3 times with 100 ul assay buffer and then incubated for 60 min (37° C., 5% CO2) in 60 ul assay buffer containing 1 uM Fluo-4AM ester, 0.02% pluronic acid, and 1% BSA. The dye loading solution is then aspirated and cells are washed 3 times with 100 ul assay buffer. 30 ul of that same buffer is left in each well. Within the Fluorescent Imaging Plate Reader (FLIPR, Molecular Devices), test compounds are added to the plate in a volume of 25 ul, incubated for 5 min and finally 25 ul of agonist is added. Fluorescence is measured for each well at 1 second intervals for 5 minutes and the height of each fluorescence peak is compared to the height of the fluorescence peak induced by 70 pM Ala-6,12 orexin-A with buffer in place of antagonist. For each antagonist, IC50 value (the concentration of compound needed to inhibit 50% of the agonist response) is determined. Alternatively, compound potency can be assessed by a radioligand binding assay (described in Bergman et. al. Bioorg. Med. Chem. Lett. 2008, 18, 1425-1430) in which the inhibition constant (Ki) is determined in membranes prepared from CHO cells expressing either the OX1 or OX2 receptor. The intrinsic orexin receptor antagonist activity of a compound which may be used in the present invention may be determined by these assays.

Row | SMILES | Ki
1 | CNC(=O)[C@@H](c1ccccc1)N1CCc2nc(OC)c(OC)cc2[C@@H]1CCc1ccc(C(F)(F)F)cc1 [Compound 1-6, (2R)-2-[(5S)-2,3-dimethoxy-5-{-2-[4-(trifluoromethyl)phenyl]ethyl}-7,8-dihydro-1,6-naphthyridin-6(5H)-yl]-N-methyl-2-phenylethanamide] | 190 pM
2 | CNC(=O)[C@@H](c1ccccc1)N1CCc2cc(OC)c(OC)nc2[C@@H]1CCc1ccc(C(F)(F)F)cc1 [Compound 1-10, (2R)-2-[(8S)-2,3-dimethoxy-8-{2-[4-(trifluoromethyl)phenyl]ethyl}-5,8-dihydro-1,7-naphthyridin-7(6H)-yl]-N-methyl-2-phenylethanamide] | 170 pM
3 | CNC(=O)[C@@H](c1ccccc1)N1CCc2nc(OC)c(OC)nc2[C@@H]1CCc1ccc(C(F)(F)F)cc1 [Compound 1-11, (2R)-2-[(5S)-2,3-dimethoxy-5-{2-[4-(trifluoromethyl)phenyl]ethyl}-7,8-dihydropyrido[3,4-b]pyrazin-6(5H)-yl]-N-methyl-2-phenylethanamide] | 440 pM
4 | CNC(=O)[C@@H](c1ccccc1)N1CCc2nc(OC)c(OC)cc2[C@@H]1CCc1ccc(C)cc1 [Compound 1-9, (2R)-2-[(5S)-2,3-dimethoxy-5-[2-(4-methylphenyl)ethyl]-7,8-dihydro-1,6-naphthyridin-6(5H)-yl]-N-methyl-2-phenylethanamide] | 180 pM
5 | CNC(=O)[C@@H](c1ccccc1)N1CCc2nc(OC)c(OC)cc2[C@@H]1CCc1ccc(Cl)cc1 [Compound 1-7, (2R)-2-[(5S)-5-[2-(4-chlorophenyl)-ethyl]-2,3-dimethoxy-7,8-dihydro-1,6-naphthyridin-6(5H)-yl]-N-methyl-2-phenylethanamide] | 260 pM
6 | CNC(=O)[C@@H](c1ccccc1)N1CCc2nc(OC)c(OC)cc2[C@@H]1CCc1ccc(F)cc1F [Compound 1-8, (2R)-2-[(5S)-5-[2-(2,4-difluoro-phenyl)ethyl]-2,3-dimethoxy-7,8-dihydro-1,6-naphthyridin-6(5H)-yl]-N-methyl-2-phenylethanamide] | 1000 pM
